Test results published in the supplement of paper PMC10307832.

Tests used:
Test in all cases: relative viability (nuclei count vs DMSO), 5 days (fraction); higher = more cells survive
[1] = compound: C1=CC2=NC=CN=C2C=C1/C=C/3\C(=O)NC(=O)S3 + Cc1nc(NC(=O)N2CCC[C@H]2C(N)=O)sc1-c1ccnc(C(C)(C)C(F)(F)F)c1 [Alpelisib] (partner 2 µM)
Outline: (§1)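 One day after seeding in 1536-well plates, lung cancer cell lines were dosed by pin tool. Dosing was either single-drug or a fixed anchor-drug dose plus five library-drug doses (not always all listed) in √10 steps. After 5 days, nuclei were stained in one fix-and-stain step and counted on 4× images, and relative viability is the nuclei count of treated wells over that of vehicle wells, given as the median of duplicate plates.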

[2] = compound: CCN1CCN(c2ccc(Nc3cc(N(C)C(=O)Nc4c(Cl)c(OC)cc(OC)c4Cl)ncn3)cc2)CC1 [BGJ398] + CS(=O)(=O)N1CCN(Cc2cc3nc(-c4cccc5[nH]ncc45)nc(N4CCOCC4)c3s2)CC1 [Pictilisib] (partner 1 µM)
Outline: as §1

[3] = compound: CCN1CCN(c2ccc(Nc3cc(N(C)C(=O)Nc4c(Cl)c(OC)cc(OC)c4Cl)ncn3)cc2)CC1 [BGJ398] + Nc1nc2[nH]cc(CCc3ccc(C(=O)N[C@@H](CCC(=O)O)C(=O)O)cc3)c2c(=O)[nH]1 [Pemetrexed] (partner 0.2 µM)
Outline: as §1

[4] = compound: C1=CC2=NC=CN=C2C=C1/C=C/3\C(=O)NC(=O)S3 + CC(=O)c1c(C)c2cnc(Nc3ccc(N4CCNCC4)cn3)nc2n(C2CCCC2)c1=O [Palbociclib] (partner 0.5 µM)
Outline: as §1

| Cell Line | relative viability ([1]; first compound 0.02 µM) | relative viability ([1]; first compound 0.06325 µM) | relative viability ([1]; first compound 0.2 µM) | relative viability ([1]; first compound 0.6325 µM) | relative viability ([1]; first compound 2 µM) | relative viability ([2]; first compound 0.01 µM) | relative viability ([2]; first compound 0.03162 µM) | relative viability ([2]; first compound 0.1 µM) | relative viability ([2]; first compound 0.3162 µM) | relative viability ([2]; first compound 1 µM) | relative viability ([3]; first compound 0.01 µM) | relative viability ([3]; first compound 0.03162 µM) | relative viability ([3]; first compound 0.1 µM) | relative viability ([3]; first compound 0.3162 µM) | relative viability ([3]; first compound 1 µM) | relative viability ([4]; first compound 0.02 µM) | relative viability ([4]; first compound 0.06325 µM) | relative viability ([4]; first compound 0.2 µM) | relative viability ([4]; first compound 0.6325 µM) | relative viability ([4]; first compound 2 µM) |
| --- | --- | --- | --- | --- | --- | --- | --- | --- | --- | --- | --- | --- | --- | --- | --- | --- | --- | --- | --- | --- |
| NCI-H2085 | 0.991 | 1.01 | 1.04 | 0.885 | 1.02 | 0.456 | 0.44 | 0.372 | 0.508 | 0.394 | 0.927 | 0.845 | 0.885 | 0.978 | 1.04 | 0.494 | 0.436 | 0.485 | 0.448 | 0.46 |
| NCI-H1793 | 0.655 | 0.811 | 0.728 | 0.709 | 0.742 | 0.296 | – | 0.265 | 0.203 | 0.196 | 0.942 | 0.526 | 0.809 | 0.569 | 0.454 | 0.289 | 0.296 | 0.282 | 0.336 | 0.288 |
| LC-2-ad | 0.785 | 0.975 | 0.832 | 0.812 | 0.686 | 0.547 | 0.492 | 0.467 | 0.419 | 0.392 | 0.292 | 0.285 | 0.245 | 0.271 | 0.31 | 0.463 | 0.455 | 0.481 | 0.53 | 0.352 |
| COR-L 105 | 1.22 | 0.861 | 0.901 | 1.02 | 0.751 | 0.314 | 0.442 | 0.417 | 0.328 | 0.387 | 1.36 | 1.12 | 0.879 | 1.12 | 0.936 | 0.429 | 0.423 | 0.387 | 0.349 | 0.412 |
| NCI-H1355 | 0.67 | 0.776 | 0.864 | 0.773 | 0.751 | 0.396 | 0.477 | 0.5 | 0.496 | 0.271 | 0.981 | 1.01 | 1.06 | 1.03 | 0.945 | 0.359 | 0.419 | 0.401 | 0.359 | 0.358 |
| H3255 | 0.734 | 0.903 | 0.661 | 0.907 | 0.717 | 0.484 | 0.138 | 0.462 | 0.344 | 0.506 | 0.608 | 0.434 | 0.604 | 0.509 | 0.629 | 0.328 | 0.342 | 0.314 | 0.318 | 0.307 |
| NCI-H1993 | 0.661 | 0.743 | 0.634 | 0.553 | 0.602 | 0.744 | 0.766 | 0.722 | 0.82 | 0.685 | 0.559 | 0.543 | 0.575 | 0.572 | 0.549 | 0.623 | 0.68 | 0.58 | 0.603 | 0.331 |
| NCI-H1734 | 0.707 | – | 0.741 | 0.622 | 0.54 | 0.421 | 0.493 | 0.451 | 0.407 | 0.476 | 0.405 | 0.403 | 0.405 | 0.378 | 0.415 | 0.328 | – | 0.333 | 0.352 | 0.318 |
| HOP-62 | 0.898 | 1.02 | 1.11 | 1.09 | 1.05 | 0.731 | 0.768 | 0.649 | 1.16 | 0.669 | 0.375 | 0.382 | 0.335 | 0.36 | 0.379 | 0.478 | 0.527 | 0.44 | 0.373 | 0.449 |
| LOU-NH91 | 0.721 | 0.762 | 0.676 | 0.738 | 0.728 | 0.515 | 0.524 | 0.52 | 0.484 | 0.453 | 0.375 | 0.407 | 0.408 | 0.376 | 0.381 | 0.501 | 0.538 | 0.556 | 0.552 | 0.548 |
| NCI-H2228 | 0.814 | 1.12 | 0.802 | 0.674 | 0.664 | 0.342 | 0.56 | 0.531 | 0.484 | 0.365 | 0.312 | 0.367 | 0.377 | 0.342 | 0.299 | 0.591 | 0.665 | 0.79 | 0.705 | 0.606 |
| PC-14 | 0.959 | 0.973 | 0.932 | 0.894 | 0.863 | 0.696 | 0.346 | 0.92 | 0.669 | 0.866 | 0.13 | 0.132 | 0.131 | – | 0.151 | 0.492 | 0.539 | 0.559 | 0.488 | 0.587 |
| NCI-H1437 | 0.964 | 1.04 | 1.03 | 0.936 | 0.844 | 0.375 | 0.514 | 0.439 | 0.494 | 0.561 | 0.322 | 0.309 | 0.296 | 0.321 | 0.298 | 0.306 | 0.297 | 0.328 | 0.305 | 0.277 |
| NCI-H460 | 0.508 | 0.514 | 0.464 | 0.429 | 0.379 | 0.343 | 0.435 | 0.393 | 0.408 | 0.343 | 0.0621 | 0.0761 | 0.0595 | 0.0608 | 0.0687 | 0.168 | 0.107 | 0.176 | 0.2 | 0.122 |
| NCI-H1666 | 0.918 | 1.14 | 0.863 | 0.94 | 0.851 | 0.511 | 0.461 | 0.536 | 0.374 | 0.329 | 0.919 | 0.935 | 0.8 | 0.929 | 0.737 | 0.608 | 0.749 | 0.629 | 0.651 | 0.675 |
| NCI-H1651 | 0.888 | 1.03 | 0.986 | 0.937 | 0.996 | 0.46 | 0.625 | 0.574 | 0.507 | 0.546 | 0.544 | 0.542 | 0.615 | 0.588 | 0.423 | 0.495 | 0.503 | 0.507 | 0.515 | 0.453 |
